Measurements: US20060009520A1, “Retinoid-based methods for altering macrophage cholesterol” (priority 2004, published 2006)

Tests used:
[1] = tested on: ABCA1 protein; assay: Western blot of ABCA1 protein in mouse peritoneal macrophages; format: cell-based; conditions: 24 h
Protocol: (§1) Protein extracts from macrophages were prepared by lysing the cells in modified radioimmunoprecipitation assay buffer (50 mM Tris, 150 mM NaCl, 1 mM EDTA. 1% Triton X-100) containing a protease inhibitor cocktail (Complete EDTA Free; Roche). Protein content in the extracts was determined by using the DC protein assay (Bio-Rad, Hercules, Calif.). Equal amounts of protein (40 to 50 μg) were separated by electrophoresis with 4 to 15% acrylamide gradient gels (Bio-Rad) and then transferred to nitrocellulose membrane (Trans-Blot Transfer Medium; Bio-Rad). Membranes were probed with anti-ABCA1 antibody (Novus Biologicals, Littleton, Colo.) and anti-β-actin antibody (Sigma) according to the manufacturer's recommendations. Immunoblots were developed by using a chemiluminescent detection system (Super Signal West Pico chemiluminescent substrate; Pierce, Rockford, Ill.).

[2] = tested on: ABCA1 protein; assay: Western blot of ABCA1 protein in human monocyte-derived macrophages; format: cell-based; conditions: human primary monocytes/macrophages, 10 μM, 24 h
Protocol: as §1

[3] = tested on: ABCA1, ABCG1, SREBP-1c, apoE, LXRα, Cyp26 mRNA; assay: Quantitative real-time PCR of LXR target genes and Cyp26 in mouse peritoneal macrophages; format: cell-based; conditions: 24 h
Protocol: Total RNA was isolated from mouse peritoneal macrophages or ˜50 mg of mouse liver tissue by using the RNeasy Mini kit (Qiagen, Valencia, Calif.) or RNA-Bee reagent (Tel-Test, Inc., Friendswood, Tex.), respectively, according to the manufacturer's protocol. Real-time quantitative PCR assays were performed by using the Mx4000 Quantitative PCR System (Stratagene, La Jolla, Calif.). Briefly, 5 μg of total RNA was treated with RNase-free DNase I (Ambion, Austin, Tex.), and first-strand cDNA was synthesized with oligo(dT)12-18 by using a Superscript II RNase H^− reverse transcriptase reagent kit (Invitrogen) according to the manufacturer's protocol. For quantification of mouse ABCA1, ABCG1, SREBP-1c, LXRα, ApoE, and fatty acid synthase (FAS) mRNA levels, each amplification mixture contained 62.5 ng of cDNA, appropriate concentrations of forward and reverse primers and of dual-labeled fluorogenic probe (Biosearch Technologies, Novato, Calif.), and 12.5 μl of TaqMan Universal PCR master mix (Applied Biosystems, Foster City, Calif.). PCR thermocycling parameters were 50° C. for 2 min, 95° C. for 10 min, and 45 cycles of 95° C. for 15 s and 60° C. for 1 min. All samples were analyzed for β-actin expression in the same run. Quantitative expression values were extrapolated from standard curves for the gene of interest with 10-fold dilutions of cDNA (in triplicate). Each sample was normalized to β-actin, triplicates were averaged, and relative mRNA levels were determined. The following mouse primers and probes were used: mouse ABCA1 (mABCA1) forward (F) (5′-[…]-3′), mABCA1 reverse (R) (5′-[…]-3′), and mABCA1 TaqMan probe (5′-FAM-[…]-BHQ-3′); mABCG1 F (5′-[…]-3′), mABCG1 R (5′-[…]-3′), and mABCG1 TaqMan probe (5′-FAM-[…]-BHQ-3′); mSREBP-1c F (5′-[…]-3′), mSREBP-1c R (5′-[…]-3′), and mSREBP-1c TaqMan probe (5′-FAM-[…]-BHQ-3′); mApoE F (5′-[…]-3′), mApoE R (5′-[…]-3′), and mApoE TaqMan probe (5′-FAM-[…]-BHQ-3′); mLXRα F (5′-[…]-3′), mLXRα R (5′-[…]-3′), and mLXRα TaqMan probe (5′-FAM-[…]-BHQ-3′); mFAS F (5′-[…]-3′), mFAS R (5′-[…]-3′), and mFAS TaqMan probe (5′-FAM-[…]-BHQ-3′); and mβ-actin F (5′-[…]-3′), mβ-actin R (5′-[…]-3′), and mβ-actin TaqMan probe (5′-JOE-[…]-BHQ-3′).
(§2) For quantification of mouse Cyp26 mRNA levels, each amplification mixture (25 μ) contained 62.5 ng of cDNA, 100 nM concentrations of reverse and forward primers, and 2.5 μl of 10× SYBR Green PCR master mix (Perkin-Elmer Life Sciences, Boston, Mass.). Quantitative expression values were extrapolated from standard curves for Cyp26 expression with 10-fold dilutions of cDNA (in triplicate). Each sample was normalized to β-actin that was deduced from TaqMan assays, triplicate results were averaged, and relative Cyp26 mRNA levels were determined. The primers mCyp26 F (5′-[…]-3′) and mCyp26 R (5′-[…]-3′) were used. RNA measurements from human monocyte-derived macrophages were performed as described previously (10, 44).

[4] = tested on: ABCA1, ABCG1, SREBP-1c, apoE, LXRα, Cyp26 mRNA; assay: Quantitative real-time PCR of LXR target genes and Cyp26 in human monocyte-derived macrophages; format: cell-based
Protocol: as §2

[5] = tested on: RARγ protein; assay: Western blot of RARγ protein in macrophages; format: cell-based; conditions: macrophages incubated with ATRA
Protocol: Nuclear protein extracts from tissues and macrophages were isolated according to the following method. Tissue samples and cells were first homogenized on ice and then lysed in lysis buffer (10 mM Tris [pH 7.5], 3 mM MgCl2, 10 mM NaCl, 0.5% NP-40) containing protease inhibitor cocktail. The nucleus was then pelleted by centrifugation for 10 min at 6,000× g, immediately resuspended in a nucleus suspension buffer (250 mM Tris [pH 8.0], 60 mM KCl, I mM dithiothrietol), and then rotated for 1 h. […] The intensities of the bands were quantified by using ImageQuant and normalized to (β-actin.

[6] = tested on: acute promyelocytic leukemia; conditions: patients with acute promyelocytic leukemia; cited from earlier work
[7] = tested on: ABCA1-mediated cholesterol efflux from mouse peritoneal macrophages; assay: Cholesterol efflux to apoA-I from cholesterol-loaded macrophages
[8] = mouse primary macrophages, ATRA 0.1 to 5 μM
[9] = human primary monocytes/macrophages, ATRA 0.5 to 5 μM, 24 h

Which ABCA1 protein levels [1] does the source give for `CC1=C(/C=C/C(C)=C/C=C/C(C)=C/C(=O)O)C(C)(C)CCC1` [ATRA, all-trans-retinoic acid] here?
The ABCA1 protein levels was “dose dependently increased”.

And the ABCA1 protein [2]?
The ABCA1 protein was “increased”.

What about the “ABCA1 mRNA” value ([3]; mouse peritoneal macrophages, ATRA 0.1 to 5 μM) of the same molecule?
Its value is “increase in the mRNA that was parallel to the dose response of protein and cholesterol efflux”.

What about the “lowest dose giving ABCA1 mRNA response” value ([3]; mouse primary macrophages) of the same molecule?
Its value is 0.25 µM.

What about the “ABCG1 mRNA induction” value [3, 8] of the same molecule?
The value was “weaker and somewhat inconsistent induction”.

And the “LXRα mRNA induction” value [3, 8]?
Its value is “no significant induction”.

What about the “SREBP-1c mRNA induction” value [3, 8] of the same molecule?
The value was “weaker and somewhat inconsistent induction”.

What about the “apoE mRNA induction” value [3, 8] of the same molecule?
Its value is “no significant induction”.

And the “apoE mRNA induction” value ([4]; human primary macrophages, even at the higher dose)?
Its value is “not induced”.

What about the “ABCA1 mRNA induction” value [4, 9] of the same molecule?
Its value is “strong induction”.

What about the “ABCG1 mRNA induction” value [4, 9] of the same molecule?
The value was “strong induction”.

What about the “LXRα mRNA induction” value [4, 9] of the same molecule?
Its value is “weaker but significant increases”.

What about the “SREBP-1c mRNA induction” value [4, 9] of the same molecule?
Its value is “weaker but significant increases”.

And the “induction of RARγ protein” value [5]?
The value was under 2 fold.

What about the “patients in whom remission is induced” value [6] of the same molecule?
Its value is “ca. 80%”.

What about the “ABCA1-dependent cholesterol efflux to apoA-1, dose response” value [7] of the same molecule?
Its value is “increased ABCA1-dependent cholesterol efflux to apoA-1 in a dose-dependent fashion”.

And the “increase in cholesterol efflux to apoA-I, ATRA compared with TO-901317” value ([7]; 1 and 5 μM ATRA)?
Its value is “comparable to that occurring in macrophages treated with the LXR activator TO-901317”.

And the “increase of cholesterol efflux to apoA-1” value ([7]; maximum dose of 10 μM)?
The value was about 2 fold.
